Data reported in patent publication US6518312B2, “Immune enhancement” (Active Biotech AB, priority 2000, dated 2003).

System: transcription factor AP-1
Assay: AP-1-driven luciferase reporter gene assay in transfected Jurkat T cells (Jurkat/AP-1rep)
Assay type: cell-based
Conditions: Jurkat/AP-1rep cells stimulated 5.5 h at 37° C. with phorbol myristate acetate and ionomycin; FIG. 1
Experimental: The compounds of formula (I) were assayed for AP-1 enhancement. The compounds of this invention were tested in assays for the modulation of stimulated activity of an AP-1-driven reporter gene in the Jurkat T cell line. The activation of this reporter gene results in luciferase production and the amounts of produced luciferase parallels the level of AP-1 activity. A high level of AP-1 activity is pivotal to e.g. high production of IL-2.
Cells from the Jurkat T cell line were transfected with an AP-1-driven luciferase gene reporter construct (Parra et al., 1997) together with a selection gene vector. Selected clones from the resulting stable AP-1 reporter gene transfectants were used in the assays for AP-1 transcription factor activity. These transfected Jurkat cells (Jurkat/AP-1rep) were grown in RPMI 1640 supplemented with glutamine, hepes, sodium pyruvate, gentamicin, 10% FCS and G418. To evaluate distinct compounds for their capacity to enhance the AP-1 activity, Jurkat/AP-1rep cells were stimulated for 5.5 h in the temperature of 37° C. with phorbol myristate acetate and ionomycin in the absence and presence of test compounds. The 96 well plates containing the cell cultures were then put on ice until harvested. […] AP-1 activity was measured as luminiscence produced by luciferase substrate, which was added to the wells in conjunction with measurement.

CCN(CC)C(C)CNC(=O)c1ccc(NC(=O)C(C)C)cc1OC (stereo not shown) [Compound A, N-[(2-Diethylamino)propyl]-4-isobutyrylamino-2-methoxy-benzamide]
enhancement of the AP-1 driven reporter gene activity (luciferase luminescence): enhance the activity of the AP-1 driven reporter in a dose dependent fashion down to μM concentrations
